In paper PMC6470642, “Phenalenones from a Marine-Derived Fungus Penicillium sp” (Marine Drugs, 2019):
Where two headings read alike, the source gives them in different places.

Key:
cytotoxicity assay, K562 = assay type: cell-based; settings: human, K562 cells
Protocol: (§1) The cytotoxicity assay was performed in accordance with the published protocols. The antimicrobial assay was performed according to the method described previously.

cytotoxicity assay, A549 = assay type: cell-based; settings: human, A549 cells
Protocol: as §1

RAW 264.7 cells = assay: iNOS assay: inhibition of LPS-stimulated NO production (Griess reaction); assay type: cell-based, mouse; settings: 18 h
Protocol: Mouse macrophage RAW 264.7 cells obtained from the American Type Culture Collection (ATCC, Rockville, MD, USA) were cultured in Dulbecco’s modified Eagle’s medium (DMEM) supplemented with 10% heat-inactivated fetal bovine serum (FBS) with antibiotics-antimycotics (PSF; 100 units/mL penicillin G sodium, […] streptomycin, and 250 ng/mL amphotericin B). The cells were seeded in 24-well plates (2 × 10^5 cells/mL). The next day, the culture media was changed to 1% FBS-DMEM, and the samples were treated with the test compounds. After pretreatment with the drug for 1 h, 1 μg/mL lipopolysaccharides (LPS) was added to stimulate NO production. The cells were incubated for an additional 18 h, and the amount of NO produced in the supernatant was determined by Griess reaction. Then, the absorbance was measured at 540 nm, and the nitrite concentration was determined by comparison with a sodium nitrite standard curve. The percent inhibition was calculated using the following formula: [1 − (NO level of test samples/NO levels of vehicle-treated control)] × 100. The IC50 values were calculated through nonlinear regression analysis using TableCurve 2-D v5.01 (Systat Software Inc., San Jose, CA, USA). At the same time, MTT assays were also performed to test cell viability. MTT solution (final concentration of 500 μg/mL) was added to the cells, and they were incubated for 4 h at 37 °C. The culture media was removed, and the remaining dyes were dissolved in DMSO. The absorbance of each well was measured at 570 nm using a VersaMax ELISA microplate reader (Molecular Devices, Sunnyvale, CA, USA). The percent survival was determined by comparison with a control group (LPS+).
Figure S54. Inhibition of NO production of herqueinone compounds purified from Penicillium herquei. The effects of compounds on NO production in RAW 264.7 cells. (A) Cells were pre-treated with compounds (20 uM) and AMT (0.2 uM) for 1 h and LPS (1 ug/mL ) was added further incubated for 18 h . The amount of iNOS was examined by Griess reaction. (B) After iNOS level was measured, cell viability was tested using MTT assay. The values are expressed as the means ± SD of triplicate tests. (C) RAW 264.7 cells were pretreated with various concentrations of compound 7 and AMT (0.2 uM) for 1 h, and LPS (1 ug/mL) was added further incubated for 18 h. The amount of iNOS was examined b y Griess reaction. (D) Cell viability was tested by MTT assay. The values are expressed as the means ± SD of triplicate tests.

HUVECs = assay: VEGF-induced tube formation assay (angiogenesis); assay type: cell-based, human; settings: VEGF 50 ng/mL, 6 h, read-out: IC50, inhibition of tube formation
Protocol: Human umbilical vascular endothelial cells (HUVECs) were purchased from the American Type Culture Collection (ATCC, Rockville, MD, USA), and cultured in EGM-2 (Lonza, Walkerswille, MD, USA) supplemented with 10% FBS and antibiotics-antimycotics (PSF). The cells were maintained at 37 °C under a humidified atmosphere containing 5% CO2. A 96-well plate was coated with Matrigel (Corning) for 30 min at 37 °C under a humidified atmosphere containing 5% CO2. HUVECs (1.8 × 10^4 cells/well) were mixed with the test compounds in 0.5% FBS EBM-2 medium with VEGF (50 ng/mL) or 0.5% FBS EBM-2 medium only for the VEGF negative control. The cells were incubated for 6 h and photographed using an inverted microscope (Olympus Optical Co. Ltd., Tokyo, Japan). Images were quantified with an angiogenesis analyzer using ImageJ software. Tube formation activity was calculated using the following formula: [(Total segment # (tested compound) − Total segment # (VEGF−)]/[Total segment # (VEGF+) − Total segment # (VEGF−)] × 100 (# stands for tubule segment number). The IC50 values were calculated through nonlinear regression analysis using TableCurve 2-D v5.01 (Systat Software Inc., San Jose, CA, USA). Cell viabilities were evaluated with the MTT assay. HUVECs (0.8 × 10^4 cells/well) were seeded into a 96-well plate and indicated for 1 day. The culture medium was replaced with serum-free medium, and the cells were incubated overnight. After starvation, the cells were treated with the test compounds and VEGF (50 ng/mL) in 2% FBS EBM-2 medium. Cells were incubated for a further 24 h, and MTT solution (final concentration of 500 μg/mL) was added to the cells to measure the cell viability. The formazan products were dissolved in DMSO. The absorbance of each well was measured at 570 nm using a VersaMax ELISA microplate reader (Molecular Devices, Sunnyvale, CA, USA).
Figure S55. Angiogenesis activities of herqueinone compounds purified from Penicillium herquei. Effects of 6 on VEGF-induced tube formation and cell viability. Tube formation activity was measured after cells were incubated with indicated concentrations of 6 on matrigel-coated 96wells for 6 h in the presence of VEGF (50 ng/mL) compared to control in the absence of VEGF. Cell viability was measured by MTT assay after treat with indicated concentrations of 6 in the presence of VEGF (50 ng/mL) for 24 h. The values are expressed as the means ± SD of triplicate tests. * p ≤ 0.05, ** p ≤ 0.01 and *** p ≤ 0.001.

hBM-MSCs = assay: adiponectin production assay during adipogenesis (ELISA); assay type: cell-based; settings: Homo sapiens
Protocol: Human bone marrow-mesenchymal stem cells (hBM-MSCs) were purchased from Lonza, Inc. (Walkersville, MD, USA) and cultured in low-glucose (1 g/L) DMEM supplemented with 10% FBS, penicillin-streptomycin, and Glutamax^TM (Invitrogen, Carlsbad, CA, USA). To induce adipogenesis, the cell growth medium was replaced with high-glucose (4.5 g/L) DMEM supplemented with 10% FBS, penicillin-streptomycin, 10 μg/mL insulin, 0.5 μM dexamethasone, and 0.5 mM 3-isobutyl-1-methylxanthine (IBMX) (IDX conditions). IBMX, pioglitazone, and aspirin were purchased from Sigma-Aldrich (St. Louis, MO, USA). hBM-MSCs were stained with 0.2% oil red O (ORO) reagent for 10 min at 24 °C, and then washed with H2O four times. Following a 10-min elution with isopropanol, the absorbance was measured at 500 nm using a spectrophotometer. To visualize the nucleus, the hBM-MSCs were counterstained with hematoxylin reagent for 2 min and then washed twice with H2O. The level of adipocyte differentiation was observed and counted using an inverted phase microscope. A Quantikine immunoassay kit (R&D Systems, Minneapolis, MN, USA) was used for quantitative determination of adiponectin in the cell culture supernatants.
Figure S56. PPARγ binding and adiponectin secretion -promoting activities of herqueinone compounds purified from Penicillium herquei. (A) TR-FRET based competitive PPARγ binding assays were performed for herqueinone compounds 1-11. (B) Ki values for compounds 1, 3, 4, 7, 8 and 9 were calculated based on the Cheng and Prusoff analysis. (C) Herqueinone compounds were added to the IDX condition when adipogenesis was induced in hBM-MSCs. On the fifth day, the cell culture supernatants were harvested.
ELISA was performed to measure the level of adiponectin. Positive controls were pioglitazone and aspirin.
(D) The concentration dependency of herqueinone compounds 1, and 9 on adiponectin secretion-promoting activity was determined. Values represent means ± SD (n=3); * p ≤ 0.05 and ** p ≤ 0.01.
(1 picture or pasted object on this page, not shown here)

[1] = Mus musculus, RAW264.7, LPS 1 μg/mL
[2] = IDX conditions, read-out: IC50 values, adiponectin secretion-promoting effects
[3] = adiponectin secretion, Table S1, read-out: EC50 hBM-MSC(B7)

Compound | IC50 (cytotoxicity assay, K562) [µM] | IC50 (cytotoxicity assay, A549) [µM] | IC50 (RAW 264.7 cells; [1]) [µM] | IC50 (HUVECs; Homo sapiens, HUVEC) [µM] | IC50 (RAW 264.7 cells; LPS 1 μg/mL) [µM] | EC50 (hBM-MSCs; [2]) [µM] | EC50 (hBM-MSCs; [3]) [µM] | IC50 (HUVECs) [µM]
CC(=O)CC1(O)C(=O)C2=c3c(c(O)cc(C)c3=C3O[C@H](C)C(C)(C)[C@]3(O)C2=O)C1=O (single isomer, unassigned) [Compound 4, Oxopropylisoherqueinone A] | > 10 | > 10 | > 20 | > 40 |  |  |  | 
CC1CCN=C(N)S1 (stereo not shown) [AMT, reference compound] |  |  |  |  | 0.2 |  |  | 
COc1c(O)c2c3c(c1O)C(=O)[C@@]1(O)C(=C3C(C)=C(O)C2=O)O[C@@H](C)C1(C)C [Compound 1, ent-Peniciherqueinone] | > 10 | > 10 | > 20 | > 40 |  | 57.5 | 57.5 | 
CC1=C(O)C(=O)c2c(O)c(O)c(O)c3c2C1=C1O[C@@H](C)C(C)(C)[C@@]1(O)C3=O [Compound 2, 12-Hydroxynorherqueinone] | > 10 | > 10 | > 20 | > 40 |  |  |  | 
COc1c(O)c2c3c(c1O)C(=O)[C@]1(O)C(=C3C(C)=CC2=O)O[C@H](C)C1(C)C [Compound 3, ent-Isoherqueinone] | > 10 | > 10 | > 20 | > 40 |  |  |  | 
CC(=O)CC1(O)C(=O)C2=c3c(c(O)cc(C)c3=C3O[C@H](C)C(C)(C)[C@]3(O)C2=O)C1=O (stereo partly shown) [Compound 5, Oxopropylisoherqueinone B] |  |  |  |  | > 20 |  |  | > 40
Cc1cc(O)c2c3c1=C1O[C@@H](C)C(C)(C)[C@@]1(O)C(=O)C=3C(=O)OC2=O [Compound 6, 4-Hydroxysclerodin] | > 10 | > 10 | > 20 | 20.9 |  |  |  | 
CC(=O)CC1(O)C(=O)c2c(O)cc(C)c3c4c(c(O)c(c23)C1=O)C(C)(C)[C@@H](C)O4 (stereo partly shown) [Compound 7, acetone adduct of the triketone] | > 10 | > 10 | 3.2 | > 40 |  |  |  | 
COc1c(O)c2c3c(c1O)C(=O)[C@@]1(O)C(=C3C(C)=CC2=O)O[C@H](C)C1(C)C [Compound 8, herqueinone] | > 10 | > 10 | > 20 | > 40 |  |  |  | 
COc1c(O)c2c3c(c1O)C(=O)[C@@]1(O)C(=C3C(C)=CC2=O)O[C@@H](C)C1(C)C [Compound 9, isoherqueinone] | > 10 | > 10 | > 20 | > 40 |  | 39.7 | 39.7 | 
Cc1cc(O)c2c3c(c(O)c4c(c13)O[C@@H](C)C4(C)C)C(=O)OC2=O [Compound 10, sclerodin] | > 10 | > 10 | > 20 | > 40 |  |  |  | 
Cc1cc(O)c2c3c(c(O)c4c(c13)O[C@@H](C)C4(C)C)C(=O)C(=O)O2 [Compound 11, scleroderolide] | > 10 | > 10 | > 20 | > 40 |  |  |  | 
CCc1ccc(CCOc2ccc(CC3SC(=O)NC3=O)cc2)nc1 (stereo not shown) [Pioglitazone, pioglitazone, reference compound] |  |  |  |  |  |  | 0.69 | 
CCN(CC)CCNC(=O)c1c(C)[nH]c(/C=C2\C(=O)Nc3ccc(F)cc32)c1C [Sunitinib, reference compound] |  |  |  | 1.5 |  |  |  | 
